Test results from patent US20040072815A1, “Antibiotic composition and method” (priority 2003, published 2004).

How the values were obtained:
serine β-lactamase = details: background statement in words; cited from earlier work
[1] = target: N-acetylated, α-linked, acidic dipeptidase (NAALADase) (Homo sapiens, UniProt Q04609); assay: inhibition of NAALADase by clavulanic acid (applicant's discovery, no method given); assay type: biochemical; details: statement in words, no data
bacteria = details: clavulanic acid alone; background statement in words; cited from earlier work

Sequence of N-acetylated, α-linked, acidic dipeptidase (NAALADase) (Q04609 whole entry): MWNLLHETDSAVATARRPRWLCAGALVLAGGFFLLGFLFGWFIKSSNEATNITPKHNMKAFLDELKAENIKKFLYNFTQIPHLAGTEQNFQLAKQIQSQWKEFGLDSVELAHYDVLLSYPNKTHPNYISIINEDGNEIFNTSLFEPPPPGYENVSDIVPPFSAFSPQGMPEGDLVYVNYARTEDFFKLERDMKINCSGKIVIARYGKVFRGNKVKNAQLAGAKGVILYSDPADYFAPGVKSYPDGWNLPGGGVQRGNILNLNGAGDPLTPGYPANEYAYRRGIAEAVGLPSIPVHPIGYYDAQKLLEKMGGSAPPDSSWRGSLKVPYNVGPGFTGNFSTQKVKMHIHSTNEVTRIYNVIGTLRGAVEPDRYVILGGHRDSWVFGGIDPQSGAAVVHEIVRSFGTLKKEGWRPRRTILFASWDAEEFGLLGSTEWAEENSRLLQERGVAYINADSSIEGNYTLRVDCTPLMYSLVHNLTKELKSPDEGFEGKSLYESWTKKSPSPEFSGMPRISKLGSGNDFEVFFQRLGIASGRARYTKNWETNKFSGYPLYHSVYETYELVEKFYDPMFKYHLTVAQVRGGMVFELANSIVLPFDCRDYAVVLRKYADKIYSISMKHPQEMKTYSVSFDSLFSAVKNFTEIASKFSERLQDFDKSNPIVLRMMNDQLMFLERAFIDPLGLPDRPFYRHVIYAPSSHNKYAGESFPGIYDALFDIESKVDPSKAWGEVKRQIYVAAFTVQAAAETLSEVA

In the case of `O=C(O)[C@H]1/C(=C/CO)O[C@@H]2CC(=O)N21` [clavulanic acid], the “binding affinity for the serine β-lactamases” value (serine β-lactamase) is given as “very high binding affinity”, the “inhibition of "serine" β-lactamase” value (serine β-lactamase) is given as “potent inhibitor” and the “inhibition of NAALADase” value [1] is given as “potent inhibitor”. For the same molecule, the antibacterial activity (bacteria) was “only weak, though broad spectrum, antibacterial activity”.
